According to patent publication US11542259B2, “Compounds for the treatment of kinase-dependent disorders” (Exelixis, Inc., priority 2018, dated 2023):

How the values were obtained:
[1] = biological target: Mer (Homo sapiens (Human), UniProt Q12866); test: Mer autophosphorylation ELISA in transient transfected 293A cells; format: cell-based; settings: cellular, MERTK transfected 293A cells
Procedure: 293A cells (Thermo Fisher #R70507) were seeded at 1.5×10^6 cells/well onto 100 mm dish (Greiner #664169), in DMEM (Thermo Fisher #11995-040) containing 10% FBS (Thermo Fisher #26140-079), 1% MEM NEAA (Thermo Fisher #11140-050), 1% GlutaMax (Thermo Fisher #35050-061), and 1% Penicillin Streptomycin (Thermo Fisher #15140-122). 293A cells were incubated at 37° C., 5% CO2 for 24 h and then transfected with 6 μg MERTK DNA (Genecopoeia #EX-Z8208-M02) using TransIT LT1 transfection reagent (Mirus-Bio #MIR2305). After 24 h incubation, the transfected 293A cells were seeded at 1×10^5 cells/well onto 96-well plates (Corning #3904) in DMEM growth medium overnight. Test compounds were serially diluted to produce an 8-point dose curve in fresh serum-free medium to a final concentration of 0.3% DMSO (vehicle) and added to the cells and incubated for 1 h. Cells were then immediately lysed with 150 μL of cold 1× lysis buffer [20 mM Tris, 137 mM sodium chloride, 2 mM EDTA, 10% glycerol, 1% NP-40 alternative, 1 mM activated sodium orthovanadate, 1 mM PefaBloc SC (Sigma-Aldrich #11429868001), protease/phosphatase inhibitor tablet (Thermo Fisher #A32959)]. Lysates were clarified by centrifugation and 50 μL/well added into the human phospho-Mer DuoSet IC ELISA (R&D Systems #DYC2579-2). Assay was performed according to manufacturer's instructions and sample phospho-Mer concentrations were extrapolated using human phospho-Mer control (R&D Systems #841793) as a standard. Positive control wells (100% activity) contained DMSO-treated cell lysates. Negative control wells (0% activity) contained reference inhibitor-treated cell lysates. IC50 values were calculated by nonlinear regression analysis using a 4-parameter logistic curve fit in ActivityBase XE (IDBS).

[2] = biological target: Met (Homo sapiens (Human), UniProt P08581); test: Met autophosphorylation ELISA in PC-3 cells; format: cell-based; settings: cellular, HGF stimulated, read-out: c-Met IC50
Outline: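 Phospho-Met (panTyr) sandwich ELISA on lysates of PC-3 cells given 100 ng/mL HGF for 10 min after 1 h compound exposure (8-point curve, 0.3% DMSO) following 3 h serum starvation. Normalised to HGF-stimulated DMSO and reference-inhibitor wells; 4-parameter logistic IC50.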

[3] = biological target: KDR (Homo sapiens (Human), UniProt P35968); test: KDR autophosphorylation ELISA in HUVEC cells; format: cell-based; settings: cellular, VEGF165 stimulated
Outline: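 HUVECs grown 24 h at 37 °C, then serum-starved 24 h, were preincubated 1 h with an 8-point compound series (0.3% DMSO) and stimulated with 100 ng/mL human VEGF165 for 5 min. Phospho-KDR in lysates was measured by sandwich ELISA against a phospho-KDR standard; IC50 from 4-parameter logistic fit.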

[4] = biological target: AXL (Homo sapiens (Human), UniProt P30530); test: AXL autophosphorylation ELISA in A-172 cells; format: cell-based; settings: cellular, Gas6 stimulated
Outline: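 Serum-starved (24 h) A-172 glioblastoma cells pretreated 1 h with compounds (8-point curve, 0.3% DMSO), then stimulated 15 min with 1 μg/mL Gas6. Lysate phospho-AXL measured by sandwich ELISA against a phospho-AXL standard; IC50 from 4-parameter logistic fit between DMSO and reference-inhibitor controls.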

[5] = biological target: Human Mer (residues R557-E882 with H628Q and R794A) (Homo sapiens (Human), UniProt Q12866); test: Human Mer kinase assay (33P radiometric, KinaseProfiler); format: biochemical; settings: 10 μM ATP
Procedure: (§1) Kinase activity and compound inhibition were investigated using the ^33P-Phosphoryl transfer radiometric kinase assay, performed using the KinaseProfiler™ service of Eurofins Pharma Discovery Services UK Limited. Dose-response experiments were performed using nine compound concentrations in a 96-well microtiter plate. For each assay, all compounds were prepared to a 50× final assay concentration (50 μM) in 100% DMSO, then diluted in a half-log series, with the final top concentration at 1 μM. This working stock of the compound was added to the assay well as the first component in the reaction, followed by the remaining components as detailed in the following assay protocols below. The positive control wells (100% kinase activity) contain all components of the reaction including 2% DMSO (control for solvent effects), except the compound of interest. Blank wells contain all components of the reaction, with the reference inhibitor, staurosporine. This reference compound was used to abolish kinase activity and generated the 0% kinase activity base-line. IC50 values were calculated by nonlinear regression analysis using the sigmoidal dose-response (variable slope) curve fit on XLFit version 5.3 (ID Business Solutions).
Human Mer (residues R557-E882 with H628Q and R794A, 0.7 nM) was incubated with 8 mM MOPS pH 7.0, 0.2 mM EDTA, 30 mM NaCl, 250 μM GGMEDIYFEFMGGKKK (SEO ID NO. 44). 10 mM magnesium acetate, and 10 μM [γ-^33P-ATP]. The reaction was initiated by the addition of the Mg/ATP mix. After incubation for 40 minutes at room temperature, the reaction was stopped by the addition of phosphoric acid to a concentration of 0.5%. A reaction aliquot of 10 μL was then spotted onto a P30 filtermat and washed four times for 4 minutes in 0.425% phosphoric acid and once in methanol prior to drying and scintillation counting. Incorporated ^33P was measured using the Wallac Microbeta scintillation counter (Perkin Elmer).

[6] = biological target: Human Met (residues R974-S1390 with A1209G and V1290L) (Homo sapiens, UniProt P08581); test: Human Met kinase assay (33P radiometric, KinaseProfiler); format: biochemical; settings: 10 μM ATP, read-out: c-Met IC50
Procedure: as §1
Human Met (residues R974-S1390 with A1209G and V1290L, 3.4 nM) was incubated with 8 mM MOPS pH 7.0, 0.2 mM EDTA, 250 μM KKKGQEEEYVFIE (SEO ID NO. 45), 1 mM sodium orthovanadate, 5 mM […], 10 mM magnesium acetate, and 10 μM [γ-33P-ATP]. The reaction was initiated by the addition of the Mg/ATP mix. After incubation for 40 minutes at room temperature, the reaction was stopped by the addition of phosphoric acid to a concentration of 0.5%. A reaction aliquot of […] was then spotted onto a P30 filtermat and washed four times for 4 minutes in 0.425% phosphoric acid and once in methanol prior to drying and scintillation counting. Incorporated 33P was measured using the Wallac Microbeta scintillation counter (Perkin Elmer).

[7] = biological target: Human Axl (residues H473-A894 with Q764R) (Homo sapiens (Human), UniProt P30530, Q764R); test: Human AXL kinase assay (33P radiometric, KinaseProfiler); format: biochemical; settings: 10 μM ATP
Procedure: as §1
Human Axl (residues H473-A894 with Q764R, 161 nM) was incubated with 8 mM MOPS pH 7.0, 0.2 mM EDTA, 250 μM KKSRGDYMTMQIG (SEO ID NO. 43) 10 mM magnesium acetate and 10 μM [γ-33P-ATP]. The reaction was initiated by the addition of the Mg/ATP mix. After incubation for 40 minutes at room temperature, the reaction was stopped by the addition of phosphoric acid to a concentration of 0.5%. A reaction aliquot of 10 μL was then spotted onto a P30 filtermat and washed four times for 4 minutes in 0.425% phosphoric acid and once in methanol prior to drying and scintillation counting. Incorporated ^33P was measured using the Wallac Microbeta scintillation counter (Perkin Elmer).

Chain of Human Axl (residues H473-A894 with Q764R) (P30530 473-894 Q764R): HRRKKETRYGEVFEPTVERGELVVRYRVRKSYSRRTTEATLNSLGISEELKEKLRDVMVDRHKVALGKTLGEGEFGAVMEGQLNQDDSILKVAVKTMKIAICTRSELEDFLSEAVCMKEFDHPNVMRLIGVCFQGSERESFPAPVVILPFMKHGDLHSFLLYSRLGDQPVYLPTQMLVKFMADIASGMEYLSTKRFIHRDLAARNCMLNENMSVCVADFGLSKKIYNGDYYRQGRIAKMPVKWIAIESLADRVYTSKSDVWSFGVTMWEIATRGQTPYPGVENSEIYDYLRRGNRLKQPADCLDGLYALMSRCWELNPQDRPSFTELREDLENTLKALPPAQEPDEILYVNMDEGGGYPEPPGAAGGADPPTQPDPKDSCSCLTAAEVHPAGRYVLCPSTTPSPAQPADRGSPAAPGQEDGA
Chain of AXL (P30530 26-894): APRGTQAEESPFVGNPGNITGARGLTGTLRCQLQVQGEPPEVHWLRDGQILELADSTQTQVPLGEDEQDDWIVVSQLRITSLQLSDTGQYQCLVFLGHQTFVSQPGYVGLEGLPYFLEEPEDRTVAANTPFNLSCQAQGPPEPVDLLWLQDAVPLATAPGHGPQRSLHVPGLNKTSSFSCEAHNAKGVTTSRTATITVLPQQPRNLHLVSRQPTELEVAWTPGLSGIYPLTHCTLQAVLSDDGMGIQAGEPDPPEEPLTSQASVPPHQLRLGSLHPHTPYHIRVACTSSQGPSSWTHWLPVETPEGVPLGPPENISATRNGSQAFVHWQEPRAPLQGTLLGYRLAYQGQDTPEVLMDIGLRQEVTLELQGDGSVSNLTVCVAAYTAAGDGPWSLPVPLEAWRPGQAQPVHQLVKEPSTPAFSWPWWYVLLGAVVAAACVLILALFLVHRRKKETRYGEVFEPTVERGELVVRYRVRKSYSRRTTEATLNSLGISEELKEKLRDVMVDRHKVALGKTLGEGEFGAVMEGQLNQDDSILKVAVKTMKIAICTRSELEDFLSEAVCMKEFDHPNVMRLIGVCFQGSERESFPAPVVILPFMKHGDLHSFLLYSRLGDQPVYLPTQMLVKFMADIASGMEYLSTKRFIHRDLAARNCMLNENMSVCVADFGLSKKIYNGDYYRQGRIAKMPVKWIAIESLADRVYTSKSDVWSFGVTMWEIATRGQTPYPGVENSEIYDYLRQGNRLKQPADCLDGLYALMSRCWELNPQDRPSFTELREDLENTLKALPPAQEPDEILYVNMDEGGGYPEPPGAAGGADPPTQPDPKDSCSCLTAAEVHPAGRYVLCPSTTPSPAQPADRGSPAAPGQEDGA
Chain of KDR (P35968 20-1356): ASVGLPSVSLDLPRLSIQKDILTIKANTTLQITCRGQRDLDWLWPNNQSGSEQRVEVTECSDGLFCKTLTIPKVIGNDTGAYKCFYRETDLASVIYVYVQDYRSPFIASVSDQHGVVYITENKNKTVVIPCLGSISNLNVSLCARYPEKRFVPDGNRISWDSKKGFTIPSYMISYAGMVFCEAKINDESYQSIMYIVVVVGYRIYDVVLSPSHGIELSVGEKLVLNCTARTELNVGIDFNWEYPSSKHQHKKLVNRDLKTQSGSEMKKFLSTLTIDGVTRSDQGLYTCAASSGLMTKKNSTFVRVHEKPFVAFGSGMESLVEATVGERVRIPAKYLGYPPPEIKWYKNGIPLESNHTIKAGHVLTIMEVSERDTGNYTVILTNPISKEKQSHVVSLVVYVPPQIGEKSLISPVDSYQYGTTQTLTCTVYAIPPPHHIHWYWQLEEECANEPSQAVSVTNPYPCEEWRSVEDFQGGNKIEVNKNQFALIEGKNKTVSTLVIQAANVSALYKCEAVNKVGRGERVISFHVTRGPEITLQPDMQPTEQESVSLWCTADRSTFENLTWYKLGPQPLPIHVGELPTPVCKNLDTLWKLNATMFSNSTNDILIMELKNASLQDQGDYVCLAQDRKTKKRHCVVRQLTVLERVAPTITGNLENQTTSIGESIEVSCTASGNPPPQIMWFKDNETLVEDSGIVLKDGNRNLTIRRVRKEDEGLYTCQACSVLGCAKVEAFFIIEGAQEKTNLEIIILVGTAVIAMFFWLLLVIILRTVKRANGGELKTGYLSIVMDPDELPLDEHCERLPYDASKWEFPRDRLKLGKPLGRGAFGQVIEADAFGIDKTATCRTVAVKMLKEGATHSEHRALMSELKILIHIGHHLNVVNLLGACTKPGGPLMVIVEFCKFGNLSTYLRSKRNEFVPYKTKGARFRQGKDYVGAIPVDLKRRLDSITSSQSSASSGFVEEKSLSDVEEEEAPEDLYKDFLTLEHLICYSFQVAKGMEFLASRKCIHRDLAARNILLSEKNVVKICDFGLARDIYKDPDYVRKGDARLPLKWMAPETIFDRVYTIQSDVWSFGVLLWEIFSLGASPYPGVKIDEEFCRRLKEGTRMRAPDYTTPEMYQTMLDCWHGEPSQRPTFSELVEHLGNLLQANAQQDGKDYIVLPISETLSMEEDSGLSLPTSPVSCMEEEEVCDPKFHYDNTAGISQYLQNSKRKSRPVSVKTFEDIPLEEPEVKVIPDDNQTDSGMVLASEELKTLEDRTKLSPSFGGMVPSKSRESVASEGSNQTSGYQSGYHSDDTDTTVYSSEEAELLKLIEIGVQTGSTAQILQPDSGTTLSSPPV
Chain of Met (P08581 25-1390): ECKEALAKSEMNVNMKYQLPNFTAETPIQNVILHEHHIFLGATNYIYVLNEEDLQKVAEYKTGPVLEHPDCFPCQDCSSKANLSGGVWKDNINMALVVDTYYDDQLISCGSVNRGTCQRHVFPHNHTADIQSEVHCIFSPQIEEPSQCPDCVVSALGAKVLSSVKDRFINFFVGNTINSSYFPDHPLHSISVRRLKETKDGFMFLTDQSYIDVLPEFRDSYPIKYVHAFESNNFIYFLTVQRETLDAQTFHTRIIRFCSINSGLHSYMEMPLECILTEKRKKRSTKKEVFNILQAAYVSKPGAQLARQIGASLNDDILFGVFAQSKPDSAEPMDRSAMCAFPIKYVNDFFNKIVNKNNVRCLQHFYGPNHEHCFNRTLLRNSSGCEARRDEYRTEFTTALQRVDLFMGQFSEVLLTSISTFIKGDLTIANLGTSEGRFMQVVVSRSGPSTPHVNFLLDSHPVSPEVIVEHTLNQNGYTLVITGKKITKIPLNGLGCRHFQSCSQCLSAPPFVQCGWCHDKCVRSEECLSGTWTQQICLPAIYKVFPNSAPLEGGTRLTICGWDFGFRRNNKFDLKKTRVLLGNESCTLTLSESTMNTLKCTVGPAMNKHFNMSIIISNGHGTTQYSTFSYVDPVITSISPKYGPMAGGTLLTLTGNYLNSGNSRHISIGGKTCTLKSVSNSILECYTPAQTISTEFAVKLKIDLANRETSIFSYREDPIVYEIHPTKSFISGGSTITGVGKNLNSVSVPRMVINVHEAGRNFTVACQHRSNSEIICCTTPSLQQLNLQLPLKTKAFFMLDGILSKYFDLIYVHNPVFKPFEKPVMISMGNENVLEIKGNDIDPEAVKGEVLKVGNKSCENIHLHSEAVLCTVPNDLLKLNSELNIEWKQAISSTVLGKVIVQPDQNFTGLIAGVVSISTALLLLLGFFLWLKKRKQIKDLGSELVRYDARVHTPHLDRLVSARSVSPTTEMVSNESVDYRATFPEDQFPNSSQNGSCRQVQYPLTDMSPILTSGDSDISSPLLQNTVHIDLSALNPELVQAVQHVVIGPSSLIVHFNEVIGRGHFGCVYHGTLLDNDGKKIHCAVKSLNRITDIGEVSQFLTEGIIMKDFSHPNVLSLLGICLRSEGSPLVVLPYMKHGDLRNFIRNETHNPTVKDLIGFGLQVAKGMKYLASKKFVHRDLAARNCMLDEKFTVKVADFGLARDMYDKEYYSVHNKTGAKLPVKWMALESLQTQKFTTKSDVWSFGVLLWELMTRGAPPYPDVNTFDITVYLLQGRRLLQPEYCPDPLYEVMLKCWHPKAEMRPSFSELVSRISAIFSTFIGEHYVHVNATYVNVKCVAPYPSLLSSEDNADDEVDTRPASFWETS
Chain of Mer (Q12866 21-999): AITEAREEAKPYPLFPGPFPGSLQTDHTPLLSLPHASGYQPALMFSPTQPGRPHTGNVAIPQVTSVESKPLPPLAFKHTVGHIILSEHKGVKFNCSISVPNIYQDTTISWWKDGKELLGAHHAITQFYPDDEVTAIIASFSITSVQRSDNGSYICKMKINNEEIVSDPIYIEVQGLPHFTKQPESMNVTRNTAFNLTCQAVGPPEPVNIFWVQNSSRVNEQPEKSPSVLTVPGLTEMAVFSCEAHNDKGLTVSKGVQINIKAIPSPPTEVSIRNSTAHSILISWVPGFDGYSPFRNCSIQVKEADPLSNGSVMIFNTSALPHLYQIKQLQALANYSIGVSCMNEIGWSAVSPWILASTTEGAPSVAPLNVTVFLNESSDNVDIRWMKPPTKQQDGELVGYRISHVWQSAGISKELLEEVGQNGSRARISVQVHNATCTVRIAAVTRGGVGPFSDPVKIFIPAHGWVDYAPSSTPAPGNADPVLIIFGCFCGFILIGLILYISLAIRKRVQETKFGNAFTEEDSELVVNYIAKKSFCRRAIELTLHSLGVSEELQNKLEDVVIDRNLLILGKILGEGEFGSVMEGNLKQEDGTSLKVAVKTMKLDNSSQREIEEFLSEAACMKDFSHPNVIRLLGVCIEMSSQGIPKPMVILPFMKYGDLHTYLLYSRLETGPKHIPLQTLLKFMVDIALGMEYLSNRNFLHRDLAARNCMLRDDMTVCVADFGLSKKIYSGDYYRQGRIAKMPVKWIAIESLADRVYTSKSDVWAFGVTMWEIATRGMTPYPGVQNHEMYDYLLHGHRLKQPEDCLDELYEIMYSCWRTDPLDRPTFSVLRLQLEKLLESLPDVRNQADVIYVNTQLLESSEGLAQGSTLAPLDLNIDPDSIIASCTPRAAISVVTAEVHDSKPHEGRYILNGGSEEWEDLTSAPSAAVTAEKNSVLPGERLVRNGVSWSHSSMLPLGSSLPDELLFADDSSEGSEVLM

For Cc1cc2c(Oc3cc(F)c(NC(=O)C4(C(=O)Nc5ccc(F)cc5)CC4)cc3F)ccnc2cc1C(N)=O [Compound 294, 1-N′-[4-(7-Carbamoyl-6-methylquinolin-4-yl)oxy-2,5-difluorophenyl]-1-N-(4-fluorophenyl)cyclopropane-1,1-dicarboxamide], the IC50 [1] was ≤ 10 nM, the IC50 [2] was ≤ 10 nM and the IC50 [3] was 10 to 100 nM. For the same compound, the IC50 [4] was ≤ 10 nM.

With COc1cc2c(Oc3ccc(NC(=O)C4(C(=O)Nc5ccc(F)cc5)CC4)cc3)ccnc2cc1C(=O)O [Compound 151, 4-[4-[[1-[(4-fluorophenyl)carbamoyl]cyclopropanecarbonyl]amino]phenoxy]-6-methoxyquinoline-7-carboxylic acid] the IC50 [5] was 10 to 100 nM, the IC50 [6] was 10 to 100 nM and the IC50 [3] was > 300 nM. For the same compound, the IC50 [7] was 100 to 1000 nM.

For CC(O)COc1cc2nccc(Oc3ccc(NC(=O)C4(C(=O)Nc5ccc(F)cc5)CC4)cc3)c2cc1C(N)=O (stereo not shown) [Compound 115, 1-N-[4-[6-Carbamoyl-7-(2-hydroxypropoxy)quinolin-4-yl]oxyphenyl]-1-N′-(4-fluorophenyl)cyclopropane-1,1-dicarboxamide], the IC50 [1] was 10 to 100 nM, the IC50 [2] was 10 to 100 nM and the IC50 [3] was ≤ 10 nM. For the same compound, the IC50 [4] was ≤ 10 nM.

COc1cc2nccc(Oc3ccc(NC(=O)C4(C(=O)Nc5ccc(F)cc5)CC4)cc3)c2cc1C(C)=O [Compound 34, 1-N-[4-(6-acetyl-7-methoxyquinolin-4-yl)oxyphenyl]-1-N′-(4-fluorophenyl)cyclopropane-1,1-dicarboxamide] was tested, and the IC50 [1] was ≤ 10 nM, the IC50 [2] was 10 to 100 nM and the IC50 [3] was ≤ 10 nM. For the same compound, the IC50 [4] was ≤ 10 nM.

An IC50 [1] of 10 to 100 nM, an IC50 [2] of 10 to 100 nM and an IC50 [3] of 10 to 100 nM were found for O=C(NOCCO)c1ccc2c(Oc3ccc(NC(=O)C4(C(=O)Nc5ccc(F)cc5)CC4)cc3F)ccnc2c1 [Compound 301, 1-N′-[3-Fluoro-4-[7-(2-hydroxyethoxycarbamoyl)quinolin-4-yl]oxyphenyl]-1-N-(4-fluorophenyl)cyclopropane-1,1-dicarboxamide] in this work. The IC50 [4] was 10 to 100 nM.

An IC50 [1] of 10 to 100 nM, an IC50 [2] of 10 to 100 nM and an IC50 [3] of 10 to 100 nM were found for CNC(=O)c1cc2c(Oc3ccc(NC(=O)C4(C(=O)Nc5ccc(F)cc5C5CC5)CC4)cc3F)ccnc2cc1OC [Compound 270, 1-N′-(2-Cyclopropyl-4-fluorophenyl)-1-N-[3-fluoro-4-[7-methoxy-6-(methylcarbamoyl)quinolin-4-yl]oxyphenyl]cyclopropane-1,1-dicarboxamide] in this work. It also gave an IC50 [4] of 10 to 100 nM.

An IC50 [1] of 10 to 100 nM, an IC50 [2] of 10 to 100 nM and an IC50 [3] of 10 to 100 nM were found for CCNS(=O)(=O)c1cc2c(Oc3ccc(NC(=O)C4(C(=O)Nc5ccc(F)cc5)CC4)cc3)ccnc2cc1OC [Compound 208, 1-N-[4-[6-(Ethylsulfamoyl)-7-methoxyquinolin-4-yl]oxyphenyl]-1-N′-(4-fluorophenyl)cyclopropane-1,1-dicarboxamide] in this work. The IC50 [4] was 10 to 100 nM.

COc1cc2nccc(Oc3ccc(NC(=O)C4(C(=O)Nc5ccc(F)cc5)CC4)cc3)c2cc1C(=O)NOCC(O)CO (single isomer, unassigned) [Compound 30, 1-N-[4-[6-(2,3-dihydroxypropoxycarbamoyl)-7-methoxyquinolin-4-yl]oxyphenyl]-1-N′-(4-fluorophenyl)cyclopropane-1,1-dicarboxamide] was tested, and the IC50 [1] was > 300 nM, the IC50 [2] was 100 to 300 nM and the IC50 [3] was 10 to 100 nM. The IC50 [4] was 100 to 300 nM.

An IC50 [5] of 10 to 100 nM, an IC50 [6] of 10 to 100 nM and an IC50 [7] of 100 to 1000 nM were found for COc1cc2nccc(Oc3ccc(NC(=O)C4(C(=O)Nc5ccc(F)cc5)CC4)cc3)c2cc1-c1cccn1C(=O)OC(C)(C)C [Compound 181, tert-butyl 2-[4-[4-[[1-[(4-fluorophenyl)carbamoyl]cyclopropanecarbonyl]amino]phenoxy]-7-methoxyquinolin-6-yl]pyrrole-1-carboxylate] in this work.

For COc1cc2nccc(Oc3ccc(NC(=O)C4(C(=O)Nc5ccc(F)cc5)CC4)cc3)c2cc1C(=O)O [Compound 6, 4-[4-[[1-[(4-fluorophenyl)carbamoyl]-cyclopropanecarbonyl]amino]-phenoxy]-7-methoxyquinoline-6-carboxylic acid], the IC50 [5] was 10 to 100 nM, the IC50 [6] was ≤ 10 nM and the IC50 [2] was > 300 nM. For the same compound, the IC50 [3] was > 300 nM and the IC50 [7] was 100 to 1000 nM.
